From US7544701B2, “Sulfonyldihydrobenzimidazolone compounds as 5-hydroxytryptamine-6 ligands” (Wyeth, priority 2003, dated 2009)

Target: T1, human cloned 5-HT6 receptors (Homo sapiens, UniProt P50406)
T1 construct: expressed in transfected cells; host or cells: Hela cells
Test: 5-HT6 binding affinity ([3H]-LSD displacement, membranes of Hela cells expressing human cloned 5-HT6 receptors)
Settings: [3H]-LSD 3.0 nM, 120 min, room temperature, Hela cell membranes
Protocol: The affinity of test compounds for the serotonin 5-HT6 receptor is evaluated in the following manner. Cultured Hela cells expressing human cloned 5-HT6 receptors are harvested and centrifuged at low speed (1,000×g) for 10.0 min to remove the culture media. The harvested cells are suspended in half volume of fresh physiological phosphate buffered saline solution and recentrifuged at the same speed. This operation is repeated. The collected cells are then homogenized in ten volumes of 50 mM Tris.HCl (pH 7.4) and 0.5 mM EDTA. The homogenate is centrifuged at 40,000×g for 30.0 min and the precipitate is collected. The obtained pellet is resuspended in 10 volumes of Tris.HCl buffer and recentrifuged at the same speed. The final pellet is suspended in a small volume of Tris.HCl buffer and the tissue protein content is determined in aliquots of 10-25 μl volumes. Bovine Serum Albumin is used as the standard in the protein determination according to the method described in Lowry et al., J. Biol. Chem., 193:265 (1951). The volume of the suspended cell membranes is adjusted to give a tissue protein concentration of 1.0 mg/ml of suspension. The prepared membrane suspension (10 times concentrated) is aliquoted in 1.0 ml volumes and stored at −70° C. until used in subsequent binding experiments.
Binding experiments are performed in a 96 well microtiter plate format, in a total volume of 200 μl. […] The test compounds are added in 20.0 μl volume.
The reaction is allowed to proceed in the dark for 120 min at room temperature, at which time, the bound ligand-receptor complex is filtered off on a 96 well unifilter with a Packard Filtermate® 196 Harvester. The bound complex caught on the filter disk is allowed to air dry and the radioactivity is measured in a Packard TopCount® equipped with six photomultiplier detectors, after the addition of 40.0 μl Microscint®-20 scintillant to each shallow well. The unifilter plate is heat-sealed and counted in a PackardTopCount® with a tritium efficiency of 31.0%.
Binding in the presence of varying concentrations of test compound is expressed as a percentage of specific binding in the absence of test compound. The results are plotted as log % bound versus log concentration of test compound. […] A linear regression line of data points is plotted, from which the IC50 value is determined and the Ki value is determined based upon the following equation: Ki=IC50/(1+L/KD) where L is the concentration of the radioactive ligand used and KD is the dissociation constant of the ligand for the receptor, both expressed in nM.

T1 sequence (P50406 whole entry): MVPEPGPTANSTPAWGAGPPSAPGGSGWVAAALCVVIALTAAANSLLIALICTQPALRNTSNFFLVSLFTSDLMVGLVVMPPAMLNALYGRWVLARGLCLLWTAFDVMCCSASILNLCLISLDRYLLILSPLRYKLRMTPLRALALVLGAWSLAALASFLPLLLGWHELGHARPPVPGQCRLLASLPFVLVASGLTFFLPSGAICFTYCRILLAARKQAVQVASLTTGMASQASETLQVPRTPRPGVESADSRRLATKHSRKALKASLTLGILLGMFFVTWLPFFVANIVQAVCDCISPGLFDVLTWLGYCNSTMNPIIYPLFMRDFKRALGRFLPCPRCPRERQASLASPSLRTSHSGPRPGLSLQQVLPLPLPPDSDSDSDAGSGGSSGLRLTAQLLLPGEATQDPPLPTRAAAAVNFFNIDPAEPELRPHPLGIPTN

Row | Ki [µM] | Compound
1 | 0.019 | O=c1n(C2=CCNCC2)c2ccccc2n1S(=O)(=O)c1c(Cl)nc2ccccn12 [Example 51, 1-[(2-chloroimidazo[1,2-a]pyridin-3-yl)sulfonyl]-3-(1,2,3,6-tetrahydropyridin-4-yl)-1,3-dihydro-2H-benzimidazol-2-one]
2 | 0.051 | Cc1noc(C)c1S(=O)(=O)n1c(=O)n(C2=CCNCC2)c2ccccc21 [Example 54, 1-[(3,5-dimethylisoxazol-4-yl)sulfonyl]-3-(1,2,3,6-tetrahydropyridin-4-yl)-1,3-dihydro-2H-benzimidazol-2-one]
3 | 0.026 | NCCn1c(=O)n(S(=O)(=O)c2ccc(Cl)s2)c2ccccc21 [Example 17, 1-(2-Aminoethyl)-3-[(5-chlorothien-2-yl)sulfonyl]-1,3-dihydro-2H-benzimidazol-2-one]
4 | 0.049 | Cc1c(S(=O)(=O)n2c(=O)n(C3=CCNCC3)c3ccccc32)sc2ccc(Cl)cc12 [Example 48, 1-[(5-chloro-3-methyl-1-benzothien-2-yl)sulfonyl]-3-(1,2,3,6-tetrahydropyridin-4-yl)-1,3-dihydro-2H-benzimidazol-2-one]
